Data on 1 compound can be found in US7070965B1, “Small molecule anticancer compounds and related production process” (priority 1998, dated 2006).

Data set [1] relates to K-562 leukemia cells. The data set can be described thus: In situ cell death detection, POD. The data set is classed as cell-based, human. As to conditions: 60 μg/ml, 2 and 4 hours. An excerpt:
(§1) In Situ Cell Death Detection Kit, POD (Mannheim Boehringer GmbH) was used to detect the individual apoptotic cells. Cleavage of genomic DNA during apoptosis may yield double-stranded, low molecular weight DNA fragments as well as single strand breaks in high molecular weight DNA. Those DNA strand breaks can be identified by labeling free 3′-OH termini with modified nucleotides in an enzymatic reaction. In this kit terminal deoxynucleotidyl transferase (TdT) is used to label free 3′-OH ends in genomic DNA with fluorescein-dUTP. The incorporated fluorescein is visualized under fluorescence microscope directly. The incorporated fluorescein can also bind to anti-fluorescein antibody POD and be detected by substrate reaction. Stained cells can be analyzed under light microscope.
(§2) Four human tumor cell lines, K-562 human leukemia, SNU-1 human gastric carcinoma cell lines, MCF-7 human breast adenocarcinoma and H1688 human small cell lung carcinoma cell lines, as well as Human PBLs were treated with iso-C15 (60 μg/ml).
(§3) H1688, K-562 and DU145 human cancer cells and normal human PBLs were added with POD and incubated 30 min at 37° C., washed three times with PBS, then reacted with substrate AEC and incubated for 10 min at room temperature. The cells were analyzed under light microscope. […] It is evidenced that iso-C15 induces apoptosis of cancer cells but not normal human cells.

The test system of data set [2] is H1688 cancer cells. The data set can be described thus: In situ cell death detection, POD. As to conditions: 60 μg/ml, 8 hours. The data set is classed as cell-based, human.
From the text: as §1, §2, §3

Data set [3] has as its system H1688 human small cell lung carcinoma. Briefly: Cytotoxicity ID50/ID75/ID90, trypan blue dye exclusion. It is filed as cell-based. As to conditions: 48 hours. The protocol:
(§4) All cells in adherent culture were initiated at 5×10^4 cells/well in 96-well microplates and treated immediately with iso-C15 at different concentrations (0, 1.5, 3.0, 6.0, 15.0, 30.0, and 60.0 μg/ml) diluted with medium. Both untreated and solvent (NaOH and Tween 80) treated cells served as controls. The treated cells were incubated for 48 hours at 37° C. After incubation, the supernatants were removed and the cells were trypsinized and collected prior to viability assessment by trypan blue dye exclusion.
(§5) The ID50, ID75 and ID90 were determined in duplicate in every set of experiments, and each experiment was repeated three times under identical conditions. ID50, ID75 and ID90 were defined as the concentration of iso-C15 required to kill 50, 75 or 90%, respectively, of cells (compared with that in untreated cells) and computed using CalcuSyn for Windows software (Biosoft, Cambridge UK) based on Median Effect method by Dr. T. C. Chou.

Data set [4] has as its system SNU-423 human hepatocellular carcinoma. Described as above. The data set is classed as cell-based. As to conditions: 48 hours. The protocol:
as §4, §5

The test system of data set [5] is MCF-7 human breast adenocarcinoma. The data set is described as above. The data set is classed as cell-based. Particulars: 48 hours. As to the method:
as §4, §5

Data set [6] has as its system DU-145 human prostate carcinoma. The data set is described as above. It is filed as cell-based. As to conditions: 48 hours. As to the method: as §4, §5
In data set [7] the test system is HCT 116 human colon carcinoma. The description is as above. It is filed as cell-based. Particulars: 48 hours. As to the method:
as §4, §5

Data set [8] relates to UVB radiation-induced skin tumor. Briefly: Chemoprevention of UVB-induced skin cancer. It is filed as in vivo, SKH-1 hairless mice. As to conditions: topical 200 μl of 10% iso-C15, 30 weeks, vs vehicle-treated group. The protocol: 13-methyltetradecanoic acid (iso-C15) was prepared by dissolving in NaOH solution and then in 0.8% Tween 80 with pH 7.5, with resulting concentration 10%.
Forty female SKH-1 hairless mice were divided into control and test groups, with 20 in each. The mice in both groups were treated topically once with 5.12 μg of DMBA dissolved in 200 μl acetone per mouse to achieve tumor initiation. One week later (day 8), animals in the test group were applied topically with 200 μl iso-C15 per application per mouse per day. The control group received 200 μl Tween 80 per application per mouse per day. Thirty minutes later, the animals in both groups were exposed to UVB (290–320 nm) radiation at a dose of 180 mJ/cm^2 per day to achieve UVB radiation-induced tumor promotion. The iso-C15 or vehicle treatments followed by UVB irradiation were performed twice a week up to 30 weeks from the start of UVB exposure. The animals were evaluated for tumor incidence at the end of 30 weeks.

The subject of data set [9] is K562 leukemia cell line. The data set can be described thus: DNA fragmentation gel electrophoresis. The data set is classed as cell-based, human. Particulars: 60 μg/ml. The protocol:
The gel electrophoresis assay was used for the detection of apoptosis-specific internucleosonal DNA degradation in these cells. […] After centrifuged at 14,000 RPM for 20 min at 4° C., the supernatants were transferred to new tubes and treated with RNase and proteinase K respectively. Supernatants were extracted with phenol/chloroform twice, and fragmented DNA was precipitated in ethanol. Samples were electrophoresed in a 1.5% agarose gel in 1× TAE buffer. The gel was stained with ethidium bromide and destained with distilled water. The fragmented DNA was then visualized under UV light.

Data set [10] concerns normal human PBLs. The data set can be described thus: In situ cell death detection, POD. The data set is classed as cell-based. As to conditions: 60 μg/ml, 8 hours.
From the text: as §1, §2, §3

The structures appear in SMILES notation. Values after ≈ are worked out from the molar mass of the structure shown.

In the case of `CC(C)CCCCCCCCCCCC(=O)O` [iso-C15, 13-methyltetradecanoic acid], the “apoptotic cells stained, POD” value is reported as “some cells started apoptosis (stained red) 2 hours after treatment” in data set [1], “apoptotic H1688 cancer cells (stained red) were found” in data set [2] and “few stained apoptotic cells were seen” in data set [10]. Besides, the ID75 worked out at 35.03 ± 3.59 µg/mL (≈ 145 µM) in data set [3]; 70.46 ± 9.36 µg/mL (≈ 291 µM) in data set [4]; 15.99 ± 1.28 µg/mL (≈ 66 µM) in [5]; 40.43 ± 5.72 µg/mL (≈ 167 µM) in [6]; 67.96 ± 8.25 µg/mL (≈ 280 µM) in data set [7]. Further, the ID90 came to 61.37 ± 8.06 µg/mL (≈ 253 µM) in data set [3]; 120.77 ± 15.82 µg/mL (≈ 498 µM) in data set [4]; 25.49 ± 1.68 µg/mL (≈ 105 µM) in data set [5]; 81.87 ± 8.85 µg/mL (≈ 338 µM) in data set [6]; 108.65 ± 13.35 µg/mL (≈ 448 µM) in [7]. For the same compound, the “reduction in tumor incidence” value in data set [8] is listed as 40%. Moreover, the “reduction of tumor volume” value in [8] came out at 90%. The “apoptotic DNA fragmentation” value in [9] is “fragmented low molecular weight DNA bands were seen at 2 hour and were prominent at 8 hour treated”.
